According to the NIST ThermoML archive (doi:10.1021/je200721d):

Experiment: xn = mol fraction of the nth substance listed
Conditions: Liquid, Vibrating tube method

CCCCCCCC [octane] + CCCCCC
Conditions	mass density [kg/m3]
342.99 K, 19000 kPa, x2 = 0.1654	676.86
342.99 K, 20000 kPa, x2 = 0.1654	677.79
342.99 K, 21000 kPa, x2 = 0.1654	678.7
342.99 K, 22000 kPa, x2 = 0.1654	679.59
342.99 K, 23000 kPa, x2 = 0.1654	680.47
342.99 K, 24000 kPa, x2 = 0.1654	681.32
342.99 K, 25000 kPa, x2 = 0.1654	682.14
343 K, 1000 kPa, x2 = 0.7995	627.89
343 K, 2000 kPa, x2 = 0.7995	629.27
343 K, 3000 kPa, x2 = 0.7995	630.64
343 K, 4000 kPa, x2 = 0.7995	632.01
343 K, 5000 kPa, x2 = 0.7995	633.35
343 K, 6000 kPa, x2 = 0.7995	634.69
343 K, 7000 kPa, x2 = 0.7995	636.02
343 K, 8000 kPa, x2 = 0.7995	637.32
343 K, 9000 kPa, x2 = 0.7995	638.61
343 K, 10000 kPa, x2 = 0.7995	639.87
343 K, 11000 kPa, x2 = 0.7995	641.1
343 K, 12000 kPa, x2 = 0.7995	642.32
343 K, 13000 kPa, x2 = 0.7995	643.52
343 K, 14000 kPa, x2 = 0.7995	644.7
343 K, 15000 kPa, x2 = 0.7995	645.87
343 K, 16000 kPa, x2 = 0.7995	647.01
343 K, 17000 kPa, x2 = 0.7995	648.12
343 K, 18000 kPa, x2 = 0.7995	649.21
343 K, 19000 kPa, x2 = 0.7995	650.28
343 K, 20000 kPa, x2 = 0.7995	651.33
343 K, 21000 kPa, x2 = 0.7995	652.33
343 K, 22000 kPa, x2 = 0.7995	653.33
343 K, 23000 kPa, x2 = 0.7995	654.3
343 K, 24000 kPa, x2 = 0.7995	655.24
343 K, 25000 kPa, x2 = 0.7995	656.16
352.79 K, 1000 kPa, x2 = 0.5749	631.4
352.79 K, 2000 kPa, x2 = 0.5749	632.83
352.79 K, 3000 kPa, x2 = 0.5749	634.2
352.79 K, 4000 kPa, x2 = 0.5749	635.57
352.79 K, 5000 kPa, x2 = 0.5749	636.95
352.79 K, 6000 kPa, x2 = 0.5749	638.3
352.79 K, 7000 kPa, x2 = 0.5749	639.63
352.79 K, 8000 kPa, x2 = 0.5749	640.97
352.79 K, 9000 kPa, x2 = 0.5749	642.26
352.79 K, 10000 kPa, x2 = 0.5749	643.53
352.79 K, 11000 kPa, x2 = 0.5749	644.82
352.79 K, 12000 kPa, x2 = 0.5749	646.04
352.79 K, 13000 kPa, x2 = 0.5749	647.27
352.79 K, 14000 kPa, x2 = 0.5749	648.46
352.79 K, 15000 kPa, x2 = 0.5749	649.66
352.79 K, 16000 kPa, x2 = 0.5749	650.79
352.79 K, 17000 kPa, x2 = 0.5749	651.95
352.79 K, 18000 kPa, x2 = 0.5749	653.02
352.79 K, 19000 kPa, x2 = 0.5749	654.11
352.79 K, 20000 kPa, x2 = 0.5749	655.18
352.79 K, 21000 kPa, x2 = 0.5749	656.24
352.79 K, 22000 kPa, x2 = 0.5749	657.22
352.79 K, 23000 kPa, x2 = 0.5749	658.23
352.79 K, 24000 kPa, x2 = 0.5749	659.22
352.79 K, 25000 kPa, x2 = 0.5749	660.15
352.85 K, 1000 kPa, x2 = 0.2199	646.75
352.85 K, 2000 kPa, x2 = 0.2199	648.04
352.85 K, 3000 kPa, x2 = 0.2199	649.32
352.85 K, 4000 kPa, x2 = 0.2199	650.6
352.85 K, 5000 kPa, x2 = 0.2199	651.87
352.85 K, 6000 kPa, x2 = 0.2199	653.11
352.85 K, 7000 kPa, x2 = 0.2199	654.35
352.85 K, 8000 kPa, x2 = 0.2199	655.57
352.85 K, 9000 kPa, x2 = 0.2199	656.79
352.85 K, 10000 kPa, x2 = 0.2199	657.97
352.85 K, 11000 kPa, x2 = 0.2199	659.16
352.85 K, 12000 kPa, x2 = 0.2199	660.32
352.85 K, 13000 kPa, x2 = 0.2199	661.45
352.85 K, 14000 kPa, x2 = 0.2199	662.57
352.85 K, 15000 kPa, x2 = 0.2199	663.67
352.85 K, 16000 kPa, x2 = 0.2199	664.74
352.85 K, 17000 kPa, x2 = 0.2199	665.8
352.85 K, 18000 kPa, x2 = 0.2199	666.83
352.85 K, 19000 kPa, x2 = 0.2199	667.85
352.85 K, 20000 kPa, x2 = 0.2199	668.84
352.85 K, 21000 kPa, x2 = 0.2199	669.8
352.85 K, 22000 kPa, x2 = 0.2199	670.75
352.85 K, 23000 kPa, x2 = 0.2199	671.68
352.85 K, 24000 kPa, x2 = 0.2199	672.59
352.85 K, 25000 kPa, x2 = 0.2199	673.48
352.91 K, 1000 kPa, x2 = 0.1654	648.87
352.91 K, 1000 kPa, x2 = 0.9308	609.77
352.91 K, 2000 kPa, x2 = 0.1654	650.15
352.91 K, 2000 kPa, x2 = 0.9308	611.36
352.91 K, 3000 kPa, x2 = 0.1654	651.43
352.91 K, 3000 kPa, x2 = 0.9308	612.95
352.91 K, 4000 kPa, x2 = 0.1654	652.68
352.91 K, 4000 kPa, x2 = 0.9308	614.51
352.91 K, 5000 kPa, x2 = 0.1654	653.95
352.91 K, 5000 kPa, x2 = 0.9308	616.06
352.91 K, 6000 kPa, x2 = 0.1654	655.19
352.91 K, 6000 kPa, x2 = 0.9308	617.57
